According to paper PMC9740789, “Investigation of In Vitro and In Vivo Metabolism of α-Amanitin in Rats Using Liquid Chromatography-Quadrupole Time-of-Flight Mass Spectrometric Method” (Molecules, 2022):

What was measured:
[1] = In vitro metabolic stability in rat liver microsomes; format: in vitro ADME
Experimental: (§1) In vitro stability of α-amanitin at liver microsomal system was evaluated by a LC-qTOF-MS. The remaining % represents the percentage of the sample (α-amanitin) peak area to the internal standard (verapamil) peak area.
(§2) The in vitro half-life (T1/2) and the in vitro intrinsic clearance (CLint, in vitro) were calculated by using the slope (k) of the graph shown in Figure 3. The calculation formula is shown in Equations (1) and (2). (1) T1/2=ln2/k (2) CLint,in vitromL/min/mg=k×microsomal volume mL/microsomal protein mg
(§3) The concentration of liver microsomes (microsomal volume/microsomal protein) used in the experiment was 0.5 mL/mg. The obtained CLint, in vitro was used to calculate in vivo intrinsic clearance (CLint, in vivo). The equations for calculating CLint, in vivo is shown at Equation (3):(3) CLint,in vivomL/min/kg=CLint,in vitro×mg microsomal protein/g liver weight×(g liver weight/kg body weight)
(§4) The ratio of mg microsomal protein to g liver weight was 44.8 and 48.8 in rat and human, respectively. And the ratio of g liver weight/kg body weight was 40 and 25.7 in rat and human, respectively. The hepatic clearance (CLh) was calculated from CLint, in vivo in a well-stirred model using the following Equation (4):(4) CLhmL/min=(Qh×CLint,in vivo/Qh+CLint,in vivo)
(§5) Qh (mL/min/kg), the hepatic blood flow, is known to be 55.2 and 20.7 mL/min/kg in rat and human, respectively. As a result, α-amanitin has a low hepatic clearance according to the aforementioned well-stirred model.
(§6) A metabolic stability test of α-amanitin was performed in rat and human liver microsomes. Cofactors (NADPH regenerating system solution A and B), compound (100 μg/mL of α-amanitin), 0.5 M potassium phosphate buffer with pH 7.4, and DW were mixed and pre-incubated for 5 min at 37 °C. After the pre-incubation, 12 μL of rat or human liver microsome (20 mg/mL each) was added to a 468 μL of pre-incubated cofactor mixture and the mixture was incubated for 0, 15, 30, and 60 min. After the incubation for each time point, 100 μL of the mixture was aliquoted to a 1.5 mL E-tube at each time point and 100 μL of 50% ACN in MeOH which containing 250 ng/mL of verapamil as an internal standard for protein precipitation was added for stopping the reaction. Then the mixture was centrifuged at 10,000 rpm for 5 min. Then 180 μL of the supernatants was collected in a fresh E-tube and evaporated for 3 h. After evaporation, samples were reconstituted with 150 μL of 50% MeOH with 5 mM ammonium formate. After centrifugation at 10,000 rpm for 5 min, 140 μL of reconstituted sample was transferred to a LC-vial.

[2] = In vitro metabolic stability in human liver microsomes; format: in vitro ADME
Experimental: as §1, §2, §3, §4, §5, §6

[3] = in vivo; format: in vivo, rat
Experimental: The above developed LC-qTOF-MS method was applied to obtain the PK parameters after IV and PO administration in rat. Most of the PK samples were within the qualified calibration curve, except the 2 min-time point samples in the IV group which were slightly above the upper limit of quantification (ULOQ). Since the calibration curve was linear in the range of quantification, the concentrations of these early time point IV samples have been calculated by extrapolation of the calibration curve which is also applicable for discovery study in pharmaceutical industries. The PK parameters were calculated with the non-compartmental analysis (NCA) using WinNonlin® version 8.1.0 (Certara, Princeton, NJ, USA) and the results are summarized in Table 6.
Animal Male SD rats (320 ± 10 g) were purchased from the Samtako Biokorea co. (Gyeonggi, Republic of Korea) and housed in a group of four units per cage and given standard rodent chow. The rats were fasted overnight with free access to water for 12 h before administration. The formulation was prepared by dissolving α-amanitin in normal saline (NS) and DMSO (4:1, v/v).
The rats with femoral artery and femoral vein cannulation were prepared for the IV administration, and the rats with single femoral artery cannulation were prepared for the PO administration. The cannulated SD rats were given 1 mg/kg of α-amanitin by either IV bolus or PO (n = 4, both). After administration of α-amanitin, blood sample was collected through a femoral artery cannula and transferred into a heparin-containing tube at each sampling time point (IV: 2, 5, 15, 30, 60, 120, 240, 480, and 1440 min after drug administration and PO: 5, 15, 30, 60, 120, 240, 480, and 1440 min after drug administration). Then plasma sample was obtained by centrifuging the blood sample at 13,000 rpm for 5 min. The obtained plasma samples were stored at –20 °C until analysis. After analysis, the PK parameter was calculated using WinNonlin®.

[4] = rat, in vivo, male SD rats, IV bolus 1 mg/kg, plasma, NCA, n = 4

SMILES: CC[C@H](C)[C@@H]1NC(=O)CNC(=O)[C@@H]2Cc3c([nH]c4cc(O)ccc34)[S@+]([O-])C[C@H](NC(=O)CNC1=O)C(=O)N[C@@H](CC(N)=O)C(=O)N1C[C@H](O)C[C@H]1C(=O)N[C@@H]([C@@H](C)[C@@H](O)CO)C(=O)N2 [α-amanitin]
- remaining at 0.25 h ([1]; rat liver microsomes, 15 min incubation, NADPH regenerating system, potassium phosphate buffer pH 7.4, 37 °C, 5 min pre-incubation, LC-qTOF-MS): 94.2 ± 8.6%
- remaining at 0.5 h ([1]; rat liver microsomes, 30 min incubation, NADPH regenerating system, potassium phosphate buffer pH 7.4, 37 °C, 5 min pre-incubation, LC-qTOF-MS): 93.1 ± 8.64%
- remaining at 1 h ([1]; rat liver microsomes, 60 min incubation, NADPH regenerating system, potassium phosphate buffer pH 7.4, 37 °C, 5 min pre-incubation, LC-qTOF-MS): 90.3 ± 4.37%
- half-life ([1]; rat liver microsomes, in vitro half-life, ln2/k from slope of ln(Remaining %) vs incubation time 0-60 min, NADPH, pH 7.4, 37 °C): 7.45 h
- CLint, In Vitro ([1]; rat liver microsomes, k × microsomal volume/microsomal protein (0.5 mL/mg as printed)): <10 µL/min/mg
- CLh ([1]; rat, predicted hepatic clearance, well-stirred model, Qh 55.2 mL/min/kg): 5.05 mL/min/kg
- CLint, In Vivo ([1]; rat, scaled from CLint, in vitro with 44.8 mg microsomal protein/g liver and 40 g liver/kg body weight): 5.56 mL/min/kg
- remaining at 0.25 h ([2]; human liver microsomes, 15 min incubation, NADPH regenerating system, potassium phosphate buffer pH 7.4, 37 °C, 5 min pre-incubation, LC-qTOF-MS): 89.2 ± 5.72%
- remaining at 0.5 h ([2]; human liver microsomes, 30 min incubation, NADPH regenerating system, potassium phosphate buffer pH 7.4, 37 °C, 5 min pre-incubation, LC-qTOF-MS): 85.1 ± 5.52%
- remaining at 1 h ([2]; human liver microsomes, 60 min incubation, NADPH regenerating system, potassium phosphate buffer pH 7.4, 37 °C, 5 min pre-incubation, LC-qTOF-MS): 82.6 ± 3.96%
- half-life ([2]; human liver microsomes, in vitro half-life, ln2/k from slope of ln(Remaining %) vs incubation time 0-60 min, NADPH, pH 7.4, 37 °C): 3.93 h
- CLint, In Vitro ([2]; human liver microsomes, k × microsomal volume/microsomal protein (0.5 mL/mg as printed)): <10 µL/min/mg
- CLh ([2]; human, predicted hepatic clearance, well-stirred model, Qh 20.7 mL/min/kg): 5.43 mL/min/kg
- CLint, In Vivo ([2]; human, scaled from CLint, in vitro with 48.8 mg microsomal protein/g liver and 25.7 g liver/kg body weight): 7.36 mL/min/kg
- Plasma concentration after PO administration ([3]; male SD rats, PO 1 mg/kg, all samples 5-1440 min, n = 4, calibration range 3.05–2220 ng/mL): below the LLOQ
- In vivo clearance as % of hepatic blood flow ([3]; rat, IV 1 mg/kg): ~30%
- Bioavailability (in words) ([3]; rat, PO 1 mg/kg): very low bioavailability
- AUC(0-t) [3, 4]: 1170 ng·h/mL
- clearance [3, 4]: 14 ± 1.3 mL/min/kg
- half-life [3, 4]: 0.372 ± 0.0163 h
- Cmax ([3]; rat, in vivo, male SD rats, IV bolus 1 mg/kg, plasma, NCA, n = 4, 2 min samples extrapolated above ULOQ): 2290 ± 274 ng/mL
- Vd ([3]; rat, in vivo, male SD rats, IV bolus 1 mg/kg, plasma, NCA, n = 4, read-out: Vss): 0.409 ± 0.0183 L/kg
